# Measurements: patent US8815909B2, “Diaminocyclohexane compounds and uses thereof” (Bristol-Myers Squibb Company, priority 2011, dated 2014)
# Biological target: T1, human Y4 receptor (Homo sapiens, UniProt P50391)
# T1 construct: expressed in transfected cells
# Experiment: NPY4 cAMP HTRF Agonist Assay (inhibitory cAMP assay, Gi activation by Y4 agonism)
# Format: cell-based
# Conditions: human Y4 receptor, cAMP; read-out: hY4 CAMP EC50
# In short: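 Y4 agonism read as lowered forskolin-stimulated cAMP (HTRF, 1 h detection at room temperature). Stable human Y4 CHO clone, 5000 cells/well, incubated 30 min at room temperature with compounds plus forskolin and IBMX in PBS.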
# T1 sequence (P50391 whole entry): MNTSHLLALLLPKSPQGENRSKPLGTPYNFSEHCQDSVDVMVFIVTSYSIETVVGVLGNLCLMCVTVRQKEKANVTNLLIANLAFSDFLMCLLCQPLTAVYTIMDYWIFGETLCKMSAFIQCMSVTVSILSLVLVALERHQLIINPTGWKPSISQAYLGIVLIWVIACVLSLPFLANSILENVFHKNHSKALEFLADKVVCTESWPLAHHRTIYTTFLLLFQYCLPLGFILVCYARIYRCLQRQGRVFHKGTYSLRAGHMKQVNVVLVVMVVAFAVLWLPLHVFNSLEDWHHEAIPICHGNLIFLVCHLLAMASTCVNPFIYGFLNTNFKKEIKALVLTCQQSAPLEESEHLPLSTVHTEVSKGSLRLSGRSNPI
row,Structure (SMILES),EC50 [nM]
1,NC(=O)c1cccc(-c2cnc(N[C@@H]3CCCC[C@H]3N[C@H]3CCCN(c4ccc(-n5cncn5)cc4)C3)o2)c1 [Example 500],101
2,Cn1nnc(-c2ccc(N3CCC[C@H](N[C@@H]4CCCC[C@H]4Nc4cc(Br)ccn4)C3)cc2)n1 [Example 501],84
3,Cn1nnnc1-c1ccc(N2CCC[C@H](N[C@@H]3CCCC[C@H]3Nc3nccc(-c4ccccc4)n3)C2)cc1 [Example 502],98
4,Cn1nnc(-c2ccc(N3CCC[C@H](N[C@@H]4CCCC[C@H]4Nc4cc(-c5ccc(OC(F)F)cc5)ccn4)C3)cc2)n1 [Example 503],150
5,Cn1nnc(-c2ccc(N3CCC[C@H](N[C@@H]4CCCC[C@H]4Nc4cc(-c5cccc(O)c5)ccn4)C3)cc2)n1 [Example 504],0.3
6,Cn1nnc(-c2ccc(N3CCC[C@H](N[C@@H]4CCCC[C@H]4Nc4cc(-c5cccc(C(N)=O)c5)ccn4)C3)cc2)n1 [Example 505],9
7,CC(=O)Nc1cccc(-c2ccnc(N[C@@H]3CCCC[C@H]3N[C@H]3CCCN(c4ccc(-c5nnn(C)n5)cc4)C3)c2)c1 [Example 506],0.2
8,Cn1nnc(-c2ccc(N3CCC[C@H](N[C@@H]4CCCC[C@H]4Nc4cc(-c5cccc(NS(C)(=O)=O)c5)ccn4)C3)cc2)n1 [Example 507],6
9,Cn1nnnc1-c1ccc(N2CCC[C@H](N[C@@H]3CCCC[C@H]3Nc3cc(-c4cccc(C(N)=O)c4)ccn3)C2)cc1 [Example 508],21
10,C[C@]1(N[C@@H]2CCCC[C@H]2Nc2ncc(-c3ccc(OC(F)(F)F)cc3)o2)CCCN(c2ccc(O)cc2)C1 [Example 509],128
11,FC(F)(F)Oc1ccc(-c2cnc(N[C@@H]3CCCC[C@H]3N[C@H]3C[C@@H]4C[C@H]3N(c3cc(Cl)ncn3)C4)o2)cc1 [Example 510],82
12,NC(=O)c1cccc(-c2ccnc(N[C@@H]3CCCC[C@H]3N[C@H]3CCCN(c4ccc(-n5cccn5)cc4)C3)c2)c1 [Example 511],23
13,NC(=O)c1cccc(-c2ccnc(N[C@@H]3CCCC[C@H]3N[C@H]3CCCN(c4ccc(-n5cncn5)cc4)C3)c2)c1 [Example 512],650
14,COC(=O)Nc1cccc(-c2ccnc(N[C@@H]3CCCC[C@H]3N[C@H]3CCCN(c4ccc(Br)cc4)C3)c2)c1 [Example 513],2
15,COC(=O)Nc1cccc(-c2ccnc(N[C@@H]3CCCC[C@H]3N[C@H]3CCCN(c4ccc(-c5cccnc5)cc4)C3)c2)c1 [Example 514],4
16,COC(=O)Nc1cccc(-c2ccnc(N[C@@H]3CCCC[C@H]3N[C@H]3CCCN(c4ccc(-c5cncnc5)cc4)C3)c2)c1 [Example 515],11
17,COC(=O)Nc1cccc(-c2ccnc(N[C@@H]3CCCC[C@H]3N[C@H]3CCCN(c4ccc(-c5ccccc5)cc4)C3)c2)c1 [Example 516],17
